Experimental data reported in PMC12592400, “A unique inhibitor conformation selectively targets the DNA polymerase PolC of Gram-positive priority pathogens” (Nature Communications, 2025).

What was measured:
E. faecium ATCC 700221 = assay: Frequency of resistance (FOR) study; assay type: cell-based, Enterococcus faecium; settings: for CFU total count (48h): replicates 1-2; for Number of reduced susceptible colonies: Suppl. Table 2
Protocol: Strains with reduced susceptibility to ACX compounds were generated by WuXi Apptec on behalf of Acurx Pharmaceuticals, Inc., using E. faecium ATCC 700221 as parental strain.
Agar MICs for the wild-type strain were determined on Blood agar (Huankai). Compounds and linezolid were dissolved in 100% DMSO and vancomycin in ultrapure water. Strains were inoculated onto agar plates, incubated at 37 °C for 20-24 h after which colonies were suspended in sterile 0.9% saline at different bacterial concentrations. 5 μL of bacterial suspensions was individually spotted on agar plates supplemented with compounds at different concentrations, resulting in final concentrations of 10^–1, 10^–2, 10^–3, 10^–4, 10^–5, 10^–6, and 10^–7 per spot. After incubation for 20-24 h, bacterial growth was assessed by visual inspection.
For frequency of resistance (FOR) studies, colonies from the agar plate were suspended into sterile 0.9% saline to get 10^8-10^9 CFU bacterial cells per mL. […] The suspensions were also serially diluted with 0.9% saline and spotted onto agar to determine the actual inoculum. All agar plates were incubated at 37 °C for 48 h. FOR was defined as colony number on each compound-containing plate per CFU number of actual inoculum. Resistant colonies were subcultured on the corresponding compound plates to confirm that colonies were resistant and stable.

[1] = design: method as in PMID 35134880, PMID 32892222; settings: cited from earlier work
[2] = test system: Clostridioides difficile infection; design: method as in PMID 35862742, PMID 35134880; settings: patients cured of CDI through treatment with IBZ; cited from earlier work
[3] = test system: C. difficile strain carrying a F1258L mutation; assay: MIC of C. difficile strain obtained by one-step passage; assay type: cell-based; settings: Clostridioides difficile

CC(=O)NC[C@H]1CN(c2ccc(N3CCOCC3)c(F)c2)C(=O)O1 [LZD, linezolid]
TMTC: CFU total count (48h) (E. faecium ATCC 700221; 1x MIC (ACX-728 2, ACX-641 0.5, ACX-671 1, ACX-763 4, Linezolid 2 mg/L), inoculum 1.3E+07 CFU/plate) | CFU total count (48h) (E. faecium ATCC 700221; 1x MIC (ACX-728 2, ACX-641 0.5, ACX-671 1, ACX-763 4, Linezolid 2 mg/L), inoculum 1.3E+08 CFU/plate) | CFU total count (48h) (E. faecium ATCC 700221; 2x MIC (ACX-728 4, ACX-641 1, ACX-671 2, ACX-763 8, Linezolid 4 mg/L), inoculum 1.3E+07 CFU/plate) | CFU total count (48h) (E. faecium ATCC 700221; 2x MIC (ACX-728 4, ACX-641 1, ACX-671 2, ACX-763 8, Linezolid 4 mg/L), inoculum 1.3E+08 CFU/plate) | CFU total count (48h) (E. faecium ATCC 700221; 4x MIC (ACX-728 8, ACX-641 2, ACX-671 4, ACX-763 16, Linezolid 8 mg/L), inoculum 1.3E+07 CFU/plate) | CFU total count (48h) (E. faecium ATCC 700221; 4x MIC (ACX-728 8, ACX-641 2, ACX-671 4, ACX-763 16, Linezolid 8 mg/L), inoculum 1.3E+08 CFU/plate) | CFU total count (48h) (E. faecium ATCC 700221; 8x MIC (ACX-728 16, ACX-641 4, ACX-671 8, ACX-763 32, Linezolid 16 mg/L), inoculum 1.3E+07 CFU/plate) | CFU total count (48h) (E. faecium ATCC 700221; 8x MIC (ACX-728 16, ACX-641 4, ACX-671 8, ACX-763 32, Linezolid 16 mg/L), inoculum 1.3E+08 CFU/plate) | CFU total count (48h) (E. faecium ATCC 700221; 16x MIC (ACX-728 32, ACX-641 8, ACX-671 16, ACX-763 64, Linezolid 32 mg/L), inoculum 1.3E+07 CFU/plate) | CFU total count (48h) (E. faecium ATCC 700221; 16x MIC (ACX-728 32, ACX-641 8, ACX-671 16, ACX-763 64, Linezolid 32 mg/L), inoculum 1.3E+08 CFU/plate) | Number of reduced susceptible colonies (E. faecium ATCC 700221; Fold MIC 2, 1.3E+07 cells plated) | Number of reduced susceptible colonies (E. faecium ATCC 700221; Fold MIC 2, 1.3E+08 cells plated) | Number of reduced susceptible colonies (E. faecium ATCC 700221; Fold MIC 4, 1.3E+07 cells plated) | Number of reduced susceptible colonies (E. faecium ATCC 700221; Fold MIC 4, 1.3E+08 cells plated) | Number of reduced susceptible colonies (E. faecium ATCC 700221; Fold MIC 8, 1.3E+07 cells plated) | Number of reduced susceptible colonies (E. faecium ATCC 700221; Fold MIC 8, 1.3E+08 cells plated) | Number of reduced susceptible colonies (E. faecium ATCC 700221; Fold MIC 16, 1.3E+07 cells plated) | Number of reduced susceptible colonies (E. faecium ATCC 700221; Fold MIC 16, 1.3E+08 cells plated)

O=c1[nH]c(NCc2ccc(Cl)c(Cl)c2)nc2ncn(CCN3CCOCC3)c12 [IBZ, N^2-(3,4-dichlorobenzyl)-7-(2-[1-morpholinyl]ethyl)guanine]
no recurrence was observed: recurrence of CDI during the post-treatment study period [2]
low: solubility [1]
64 µg/mL: MIC [3]
